What was measured:
Format in all cases: cell-based
[1] = molecular target: T1, N-formyl peptide receptor 2 (Homo sapiens, UniProt P25090); experiment: Agonist activity at human FPR2 expressed in CHO cells assessed as cAMP level incubated for 1.5 hr by HTRF assay
T1 sequence (P25090 whole entry): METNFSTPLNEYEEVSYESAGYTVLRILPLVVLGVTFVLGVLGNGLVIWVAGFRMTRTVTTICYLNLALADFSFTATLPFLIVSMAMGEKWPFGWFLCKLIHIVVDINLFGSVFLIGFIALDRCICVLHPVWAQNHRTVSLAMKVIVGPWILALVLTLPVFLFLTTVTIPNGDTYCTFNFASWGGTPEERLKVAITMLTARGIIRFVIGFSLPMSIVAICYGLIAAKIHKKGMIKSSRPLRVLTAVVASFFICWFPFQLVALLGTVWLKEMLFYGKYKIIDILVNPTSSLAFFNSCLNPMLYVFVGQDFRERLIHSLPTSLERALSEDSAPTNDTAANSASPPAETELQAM

[2] = molecular target: T2, fMet-Leu-Phe receptor (Homo sapiens) (UniProt P21462); experiment: Agonist activity at FPR1 (unknown origin) expressed in CHO/Galpha16 cells assessed as maximal calcium flux at 0.61 to 10000 nM by FLIPR assay relative to control; conditions: dose 0.61-10000 nM
T2 sequence (whole entry): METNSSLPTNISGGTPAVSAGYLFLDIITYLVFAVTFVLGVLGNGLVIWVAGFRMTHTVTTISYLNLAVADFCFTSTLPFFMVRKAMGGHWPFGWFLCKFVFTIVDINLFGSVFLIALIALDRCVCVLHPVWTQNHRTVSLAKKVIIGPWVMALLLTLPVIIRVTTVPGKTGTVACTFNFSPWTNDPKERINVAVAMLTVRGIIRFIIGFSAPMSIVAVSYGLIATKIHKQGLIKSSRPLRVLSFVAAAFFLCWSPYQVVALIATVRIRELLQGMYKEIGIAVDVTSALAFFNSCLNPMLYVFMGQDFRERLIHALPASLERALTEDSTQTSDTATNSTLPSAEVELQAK

[3] = molecular target: T3, N-formyl peptide receptor 2 (Homo sapiens) (UniProt P25090); experiment: Agonist activity at FPR2 (unknown origin) expressed in CHO/Galpha16 cells assessed as maximal calcium flux at 0.61 to 10000 nM by FLIPR assay relative to control; conditions: dose 0.61-10000 nM
T3 sequence (whole entry): T1 sequence (P25090 whole entry)

Homo sapiens = organism: Homo sapiens; experiment: Selectivity index, ratio of EC50 for agonist activity at FPR2 (unknown origin) expressed in CHO/Galpha16 cells to EC50 for FPR1 (unknown origin) expressed in CHO/Galpha16 cells
fMet-Leu-Phe receptor [4] = molecular target: T4, fMet-Leu-Phe receptor (Homo sapiens, UniProt P21462); experiment: Agonist activity at human FPR1 expressed in CHO cells assessed as cAMP level incubated for 1.5 hr by HTRF assay
T4 sequence (P21462 whole entry): T2 sequence (whole entry)

fMet-Leu-Phe receptor [5] = molecular target: T4, fMet-Leu-Phe receptor; experiment: Agonist activity at FPR1 (unknown origin) expressed in CHO/Galpha16 cells assessed as increase in calcium flux by FLIPR assay
[6] = molecular target: T1, N-formyl peptide receptor 2; experiment: Agonist activity at FPR2 (unknown origin) expressed in CHO/Galpha16 cells assessed as increase in calcium flux by FLIPR assay
fMet-Leu-Phe receptor [7] = molecular target: T4, fMet-Leu-Phe receptor; experiment: Agonist activity at human FPR1 expressed in CHO cells assessed as increase in calcium flux incubated for 50 mins by FLIPR calcium 5 dye based fluorescence assay
[8] = molecular target: T1, N-formyl peptide receptor 2; experiment: Agonist activity at human FPR2 expressed in CHO cells assessed as increase in calcium flux incubated for 50 mins by FLIPR calcium 5 dye based fluorescence assay
[9] = molecular target: T1, N-formyl peptide receptor 2; experiment: Agonist activity at human FPR2 transfected in HL-60 cells assessed as increase in intracellular calcium flux incubated for 30 mins by Fluo-4 AM dye based fluorometer analysis; conditions: read-out: EC50
fMet-Leu-Phe receptor [10] = molecular target: T4, fMet-Leu-Phe receptor; experiment: Agonist activity at human FPR1 transfected in HL-60 cells assessed as increase in intracellular calcium flux incubated for 30 mins by Fluo-4 AM dye based fluorometer analysis; conditions: hl-60
[11] = molecular target: T3, N-formyl peptide receptor 2 (Homo sapiens); experiment: Agonist activity at human FPR2 transfected in HL-60 cells assessed as maximal intracellular calcium flux incubated for 30 mins by Fluo-4 AM dye based fluorometer analysis relative to control; conditions: filed as agonist

O=C(Nc1ccc(C(F)(F)F)cc1)N[C@@H]1CCCN(c2ccc(-c3ccccc3F)cc2)C1=O
EC50 [1]: < 0.005 µM

CC(C)C[C@H](NC(=O)CNC(=O)Nc1ccc(Br)cc1)C(=O)O
Emax [2]: 100% | Emax [3]: 91% | Ratio EC50 (Homo sapiens): 386

Cc1cnc(NC(=O)N[C@@H]2CCCN(c3ccc(-c4ccccc4NS(C)(=O)=O)cc3F)C2=O)cn1
EC50 [1]: 0.022 µM | EC50 (fMet-Leu-Phe receptor [4]; read-out: EC50): 2 µM

CC(C)C(C(=O)O)C(C)NC(=O)Nc1ccc(Br)cc1 (stereo in doubt; 18)
EC50 (fMet-Leu-Phe receptor [5]): 0.051 µM | EC50 [6]: 0.855 µM

COc1cc(F)c([C@H]2CCN(CCC(F)F)C[C@@H]2NC(=O)Nc2ccc(Cl)cc2)c(F)c1 (relative stereo; form 2)
EC50 (fMet-Leu-Phe receptor [7]; cho): 0.001 µM | EC50 [8]: < 0.001 µM

COc1ccc(NC(=O)N[C@H](Cc2ccc(C#N)cc2)C(=O)NCC2(c3ccc(O)cc3)CC2)cc1
EC50 [9]: 7 µM | EC50 (fMet-Leu-Phe receptor [10]): Not Active | Emax [11]: 70%

O=C(Nc1ccc(C(F)(F)F)cc1)N[C@@H]1CCCN(c2ccc(-c3ccccc3C(=O)O)cc2)C1=O
EC50 [1]: 0.005 µM

NC(=O)c1ccccc1-c1ccc(N2CCC[C@@H](NC(=O)Nc3ccc(Cl)cc3)C2=O)cc1
EC50 [1]: < 0.005 µM

CS(=O)(=O)NCC1(c2ccc(N3CCC[C@@H](NC(=O)Nc4ccc(C(F)(F)F)nc4)C3=O)cc2)CCCC1
EC50 [1]: < 0.1 µM | EC50 (fMet-Leu-Phe receptor [4]; cho): Not Active

CC(C)C(C(=O)O)C(C)NC(=O)Nc1ccc(Br)cc1 (stereo in doubt; 19)
EC50 (fMet-Leu-Phe receptor [5]): 0.013 µM | EC50 [6]: 3.24 µM

CS(=O)(=O)Nc1ccccc1-c1ccc(N2CCC[C@@H](NC(=O)Nc3ccc(C(F)(F)F)nc3)C2=O)cc1
EC50 [1]: < 0.005 µM | EC50 (fMet-Leu-Phe receptor [4]; cho): Not Active

CP(C)(=O)c1ccccc1-c1ccc(N2CC[C@@H](NC(=O)Nc3ccc(Cl)cc3)C2=O)c(F)c1F
EC50 [1]: 0.025 µM

COc1cc(F)c([C@H]2CCN(CC3CC3)C(=O)[C@@H]2NC(=O)Nc2ccc(Cl)cc2)c(F)c1
EC50 (fMet-Leu-Phe receptor [7]): 0.001 µM | EC50 [8]: < 0.001 µM

COc1cc(F)c([C@@H]2CNC(=O)[C@H]2NC(=O)NC2(c3cccc(C)n3)CC2)c(F)c1
EC50 [1]: < 0.01 µM | EC50 (fMet-Leu-Phe receptor [4]; cho): Not Active

COc1ccc([C@@H]2CCN(Cc3ccccn3)C(=O)[C@@H]2NC(=O)Nc2ccc(F)cc2)cc1 (relative stereo)
EC50 (fMet-Leu-Phe receptor [7]): 0.001 µM | EC50 [8]: 0.001 µM

NC(=O)c1ccccc1-c1ccc(N2CCC[C@H](NC(=O)Nc3ccc(C(F)(F)F)cc3)C2=O)cc1
EC50 [1]: 0.04 µM

O=C(Nc1ccc(C(F)(F)F)cc1)N[C@H]1CCCN(c2ccc(-c3ccccc3F)cc2)C1=O
EC50 [1]: 0.04 µM

CN1CCN(c2ccc(N3CCC[C@@H](NC(=O)Nc4ccc(C(F)(F)F)cc4)C3=O)cc2)CC1
EC50 [1]: 0.01 µM

CC1(C)CN(c2ccc(-c3ccccc3P(C)(C)=O)c(F)c2F)C(=O)[C@@H]1NC(=O)Nc1cnc(Cl)cn1
EC50 [1]: 0.057 µM

COc1cc(F)c([C@@H]2CN(CC3CC3)C(=O)[C@H]2NC(=O)NC2(c3cccc(C)n3)CC2)c(F)c1
EC50 [1]: < 0.01 µM | EC50 (fMet-Leu-Phe receptor [4]; cho): Not Active

COc1ccc([C@H]2CCN(Cc3cccnc3)C(=O)[C@@H]2NC(=O)Nc2ccc(F)cc2)cc1 (relative stereo)
EC50 (fMet-Leu-Phe receptor [7]): 0.001 µM | EC50 [8]: 0.001 µM

NC(=O)c1ccccc1-c1ccc(N2CCC[C@@H](NC(=O)Nc3ccc(C(F)(F)F)cc3)C2=O)cc1
EC50 [1]: < 0.005 µM

CS(=O)(=O)Nc1ccccc1-c1ccc(N2CCC[C@@H](NC(=O)Nc3cnc(Cl)cn3)C2=O)cc1
EC50 [1]: < 0.005 µM | EC50 (fMet-Leu-Phe receptor [4]; cho): Not Active

O=C(Nc1ccc(C(F)(F)F)cc1)N[C@@H]1CCCN(c2ccc(N3CC4(COC4)C3)cc2)C1=O
EC50 [1]: 0.01 µM

CC(C)C[C@H](NC(=O)CCNC(=O)Nc1ccc(Br)cc1)C(=O)O
Emax [2]: 99% | Emax [3]: 81% | Ratio EC50 (Homo sapiens): 74

COc1cc(F)c([C@@H]2CNC(=O)[C@H]2Nc2nnc(-c3ccc(Cl)cc3)s2)c(F)c1
EC50 [1]: < 0.04 µM | EC50 (fMet-Leu-Phe receptor [4]; cho): Not Active

From ChEMBL document CHEMBL5233265, “Recent advances in the design and development of formyl peptide receptor 2 (FPR2/ALX) agonists as pro-resolving agents with diverse therapeutic potential” (Eur J Med Chem, 2021)
